# Assay results taken from paper PMC10465233, “Lys-urea-Aad, Lys-urea-Cmc and Lys-urea-Cms as potential pharmacophores for the design of PSMA-targeted radioligands to reduce off-target uptake in kidneys and salivary glands” (Theranostics, 2023).
# System: LNCaP tumor-bearing mice
# Assay: Ex vivo biodistribution in LNCaP tumor-bearing mice
# Set-up: species or system mouse
# Method: Imaging, biodistribution and radioligand therapy experiments were performed following previously published procedures using male NOD-scid IL2Rg^null (NSG) or NOD.Cg-Rag1^tm1MomIl2rg^tm1Wjl/SzJ (NRG) mice [10]-[12],[14]-[15]. The experiments were conducted according to the guidelines established by the Canadian Council on Animal Care and approved by Animal Ethics Committee of the University of British Columbia. The mice were briefly sedated by inhalation of 2% isoflurane in oxygen, and implanted subcutaneously with 1×10^7 LNCaP cells behind the left shoulder. The mice were imaged or used in biodistribution studies when the tumor grew to 5-8 mm in diameter over a period of 4-5 weeks.
# For biodistribution studies, the mice were injected with the radioligand (2-4 MBq) as described above. For blocking, the mice were co-injected with nonradioactive DCFPyL (0.5 mg). At predetermined time points, the mice were sedated by isoflurane inhalation and euthanized by CO2 inhalation. Blood was withdrawn by cardiac puncture, and organs/tissues of interest were collected, weighed and counted using an automatic gamma counter (Tables S4-S7).
smiles,measurement,setting,value
COc1ccc(CCCC(=O)NCC(=O)N[C@@H](CCCCNC(=O)CN2CCN(CC(=O)[O-])CCN(CC(=O)[O-])CCN(CC(=O)[O-])CC2)C(=O)NC[C@H]2CC[C@H](C(=O)N[C@@H](Cc3c4ccccc4cc4ccccc34)C(=O)NCCCC[C@H](NC(=O)N[C@@H](CSCC(=O)O)C(=O)O)C(=O)O)CC2)cc1.[177Lu+3] [[^177Lu]Lu-HTK04048],Adrenal glands uptake,1 h post-injection,4.43 ± 1.11 %ID/g
same,Blood uptake,1 h post-injection,19.8 ± 3.38 %ID/g
same,Blood:Salivary gland uptake ratio,1 h post-injection,6.78 ± 0.76
same,Bone uptake,1 h post-injection,1.10 ± 0.16 %ID/g
same,Brain uptake,1 h post-injection,0.29 ± 0.03 %ID/g
same,Fat uptake,1 h post-injection,1.56 ± 0.45 %ID/g
same,Heart uptake,1 h post-injection,4.74 ± 0.60 %ID/g
same,Intestines uptake,1 h post-injection,1.38 ± 0.22 %ID/g
same,Kidneys uptake,1 h post-injection,17.4 ± 4.32 %ID/g
same,Lacrimal glands uptake,1 h post-injection,0.42 ± 0.12 %ID/g
same,Liver uptake,1 h post-injection,3.94 ± 0.69 %ID/g
same,Lungs uptake,1 h post-injection,9.52 ± 1.44 %ID/g
same,Muscle uptake,1 h post-injection,1.54 ± 0.20 %ID/g
same,Pancreas uptake,1 h post-injection,1.77 ± 0.17 %ID/g
same,Salivary glands uptake,1 h post-injection,2.92 ± 0.36 %ID/g
same,Spleen uptake,1 h post-injection,2.57 ± 0.48 %ID/g
same,Stomach uptake,1 h post-injection,0.75 ± 0.11 %ID/g
same,Testes uptake,1 h post-injection,2.60 ± 0.62 %ID/g
same,Thyroid uptake,1 h post-injection,3.97 ± 0.47 %ID/g
same,Tumor uptake,1 h post-injection,16.5 ± 5.48 %ID/g
same,Tumor:Blood uptake ratio,1 h post-injection,0.84 ± 0.22
same,Tumor:Kidney uptake ratio,1 h post-injection,0.99 ± 0.34
same,Tumor:Muscle uptake ratio,1 h post-injection,10.7 ± 2.87
same,Tumor:Salivary gland uptake ratio,1 h post-injection,5.64 ± 1.51
same,Adrenal glands uptake,4 h post-injection,2.17 ± 0.21 %ID/g
same,Blood uptake,4 h post-injection,11.7 ± 1.39 %ID/g
same,Blood:Salivary gland uptake ratio,4 h post-injection,6.12 ± 0.58
same,Bone uptake,4 h post-injection,0.69 ± 0.11 %ID/g
same,Brain uptake,4 h post-injection,0.18 ± 0.01 %ID/g
same,Fat uptake,4 h post-injection,0.94 ± 0.13 %ID/g
same,Heart uptake,4 h post-injection,2.87 ± 0.30 %ID/g
same,Intestines uptake,4 h post-injection,1.00 ± 0.08 %ID/g
same,Kidneys uptake,4 h post-injection,12.5 ± 1.35 %ID/g
same,Lacrimal glands uptake,4 h post-injection,0.54 ± 0.52 %ID/g
same,Liver uptake,4 h post-injection,2.28 ± 0.46 %ID/g
same,Lungs uptake,4 h post-injection,5.92 ± 0.79 %ID/g
same,Muscle uptake,4 h post-injection,0.96 ± 0.09 %ID/g
same,Pancreas uptake,4 h post-injection,1.15 ± 0.14 %ID/g
same,Salivary glands uptake,4 h post-injection,1.91 ± 0.20 %ID/g
same,Spleen uptake,4 h post-injection,1.96 ± 0.39 %ID/g
same,Stomach uptake,4 h post-injection,0.71 ± 0.13 %ID/g
same,Testes uptake,4 h post-injection,2.72 ± 0.34 %ID/g
same,Thyroid uptake,4 h post-injection,2.68 ± 0.23 %ID/g
same,Tumor uptake,4 h post-injection,39.4 ± 22.4 %ID/g
same,Tumor:Blood uptake ratio,4 h post-injection,3.49 ± 2.31
same,Tumor:Kidney uptake ratio,4 h post-injection,3.27 ± 2.16
same,Tumor:Muscle uptake ratio,4 h post-injection,42.2 ± 27.3
same,Tumor:Salivary gland uptake ratio,4 h post-injection,20.9 ± 11.9
same,Adrenal glands uptake,24 h post-injection,0.67 ± 0.26 %ID/g
same,Blood uptake,24 h post-injection,0.62 ± 0.16 %ID/g
same,Blood:Salivary gland uptake ratio,24 h post-injection,1.61 ± 0.40
same,Bone uptake,24 h post-injection,0.11 ± 0.02 %ID/g
same,Brain uptake,24 h post-injection,0.03 ± 0.00 %ID/g
same,Fat uptake,24 h post-injection,0.15 ± 0.05 %ID/g
same,Heart uptake,24 h post-injection,0.34 ± 0.05 %ID/g
same,Intestines uptake,24 h post-injection,0.46 ± 0.31 %ID/g
same,Kidneys uptake,24 h post-injection,5.68 ± 1.28 %ID/g
same,Lacrimal glands uptake,24 h post-injection,0.06 ± 0.01 %ID/g
same,Liver uptake,24 h post-injection,0.77 ± 0.52 %ID/g
same,Lungs uptake,24 h post-injection,1.05 ± 0.36 %ID/g
same,Muscle uptake,24 h post-injection,0.11 ± 0.02 %ID/g
same,Pancreas uptake,24 h post-injection,0.15 ± 0.03 %ID/g
same,Salivary glands uptake,24 h post-injection,0.39 ± 0.08 %ID/g
same,Spleen uptake,24 h post-injection,0.64 ± 0.10 %ID/g
same,Stomach uptake,24 h post-injection,0.83 ± 0.66 %ID/g
same,Testes uptake,24 h post-injection,0.67 ± 0.24 %ID/g
same,Thyroid uptake,24 h post-injection,0.53 ± 0.07 %ID/g
same,Tumor uptake,24 h post-injection,65.3 ± 19.6 %ID/g
same,Tumor:Blood uptake ratio,24 h post-injection,113 ± 44.5
same,Tumor:Kidney uptake ratio,24 h post-injection,11.5 ± 2.22
same,Tumor:Muscle uptake ratio,24 h post-injection,594 ± 177
same,Tumor:Salivary gland uptake ratio,24 h post-injection,175 ± 58.1
same,Adrenal glands uptake,72 h post-injection,0.33 ± 0.06 %ID/g
same,Blood uptake,72 h post-injection,0.08 ± 0.06 %ID/g
same,Blood:Salivary gland uptake ratio,72 h post-injection,0.43 ± 0.28
same,Bone uptake,72 h post-injection,0.06 ± 0.02 %ID/g
same,Brain uptake,72 h post-injection,0.01 ± 0.00 %ID/g
same,Fat uptake,72 h post-injection,0.07 ± 0.03 %ID/g
same,Heart uptake,72 h post-injection,0.14 ± 0.03 %ID/g
same,Intestines uptake,72 h post-injection,0.13 ± 0.08 %ID/g
same,Kidneys uptake,72 h post-injection,2.19 ± 0.21 %ID/g
same,Lacrimal glands uptake,72 h post-injection,0.01 ± 0.01 %ID/g
same,Liver uptake,72 h post-injection,0.25 ± 0.02 %ID/g
same,Lungs uptake,72 h post-injection,0.26 ± 0.08 %ID/g
same,Muscle uptake,72 h post-injection,0.03 ± 0.01 %ID/g
same,Pancreas uptake,72 h post-injection,0.06 ± 0.01 %ID/g
same,Salivary glands uptake,72 h post-injection,0.18 ± 0.03 %ID/g
same,Spleen uptake,72 h post-injection,0.54 ± 0.14 %ID/g
same,Stomach uptake,72 h post-injection,0.20 ± 0.17 %ID/g
same,Testes uptake,72 h post-injection,0.35 ± 0.05 %ID/g
same,Thyroid uptake,72 h post-injection,0.28 ± 0.05 %ID/g
same,Tumor uptake,72 h post-injection,64.1 ± 15.0 %ID/g
same,Tumor:Blood uptake ratio,72 h post-injection,1493 ± 1213
same,Tumor:Kidney uptake ratio,72 h post-injection,29.2 ± 6.22
same,Tumor:Muscle uptake ratio,72 h post-injection,2043 ± 734
same,Tumor:Salivary gland uptake ratio,72 h post-injection,362 ± 111
same,Adrenal glands uptake,120 h post-injection,0.30 ± 0.14 %ID/g
same,Blood uptake,120 h post-injection,0.04 ± 0.03 %ID/g
same,Blood:Salivary gland uptake ratio,120 h post-injection,0.22 ± 0.13
same,Bone uptake,120 h post-injection,0.05 ± 0.02 %ID/g
same,Brain uptake,120 h post-injection,0.01 ± 0.00 %ID/g
same,Fat uptake,120 h post-injection,0.05 ± 0.03 %ID/g
same,Heart uptake,120 h post-injection,0.08 ± 0.02 %ID/g
same,Intestines uptake,120 h post-injection,0.10 ± 0.10 %ID/g
same,Kidneys uptake,120 h post-injection,1.43 ± 0.48 %ID/g
same,Lacrimal glands uptake,120 h post-injection,0.01 ± 0.01 %ID/g
same,Liver uptake,120 h post-injection,0.18 ± 0.07 %ID/g
same,Lungs uptake,120 h post-injection,0.12 ± 0.05 %ID/g
same,Muscle uptake,120 h post-injection,0.02 ± 0.01 %ID/g
same,Pancreas uptake,120 h post-injection,0.05 ± 0.03 %ID/g
same,Salivary glands uptake,120 h post-injection,0.13 ± 0.03 %ID/g
same,Spleen uptake,120 h post-injection,0.55 ± 0.27 %ID/g
same,Stomach uptake,120 h post-injection,0.04 ± 0.02 %ID/g
same,Testes uptake,120 h post-injection,0.22 ± 0.09 %ID/g
same,Thyroid uptake,120 h post-injection,0.17 ± 0.02 %ID/g
same,Tumor uptake,120 h post-injection,65.7 ± 19.1 %ID/g
same,Tumor:Blood uptake ratio,120 h post-injection,4346 ± 4168
same,Tumor:Kidney uptake ratio,120 h post-injection,52.1 ± 16.3
same,Tumor:Muscle uptake ratio,120 h post-injection,3358 ± 2122
same,Tumor:Salivary gland uptake ratio,120 h post-injection,604 ± 226
same,Peaked tumor uptake relative to ^68Ga-labeled non-albumin-binder analog,"mouse, in vivo",~ 3 fold
same,Peaked average tumor uptake,peak over 1-120 h post-injection,~ 60 %ID/g
same,Time of peak tumor uptake,"post-injection, listed as 177Lu-labeled HTK04048",4 to 24 h
